Results reported in ChEMBL document CHEMBL1201862, “PubChem BioAssay data set” (2004).
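All cell lines were grown in 96-well plates and treated with compound for 48 hours. The concentration for 50% growth inhibition is given as GI50.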 The source made the active and inactive calls. No stated cut-off is given here; in the data, active = GI50 up to about 1.1 µM and inactive = higher.

Assays:
Experiment in all cases: NCI tumour cell line growth inhibition, 48 h
[1] = system: A549
[2] = system: IGROV-1
[3] = system: KM12
[4] = system: LOX IMVI
[5] = system: M14
[6] = system: NCI-H226
[7] = system: NCI-H522
[8] = system: RPMI-8226
[9] = system: SF-539
[10] = system: SN12C
[11] = system: SNB-19
[12] = system: TK-10
[13] = system: UACC-62
[14] = system: UO-31
[15] = system: HOP-92
[16] = system: Malme-3M
[17] = system: RXF 393
[18] = system: SNB-75

| Compound | GI50 [1] | GI50 [2] | GI50 [3] | GI50 [4] | GI50 [5] | GI50 [6] | GI50 [7] | GI50 [8] | GI50 [9] | GI50 [10] | GI50 [11] | GI50 [12] | GI50 [13] | GI50 [14] | GI50 [15] | GI50 [16] | GI50 [17] | GI50 [18] |
| --- | --- | --- | --- | --- | --- | --- | --- | --- | --- | --- | --- | --- | --- | --- | --- | --- | --- | --- |
| COc1cc(/C=C(\C#N)C(=O)c2ccccc2)ccc1OCc1ccccc1 | > 100 µM (inactive) | > 100 µM (inactive) | > 100 µM (inactive) | > 100 µM (inactive) | > 100 µM (inactive) | > 100 µM (inactive) | > 100 µM (inactive) | > 100 µM (inactive) | > 100 µM (inactive) | > 100 µM (inactive) | > 100 µM (inactive) | > 100 µM (inactive) | > 100 µM (inactive) | > 100 µM (inactive) | – | – | – | – |
| O=C1C(Br)=C[C@H]2C3C=CC(Br)(C3=O)[C@@H]12 (some centres undefined) | 15.3 µM (inactive) | 9.62 µM (inactive) | 11.9 µM (inactive) | – | 9.33 µM (inactive) | 19 µM (inactive) | 5.85 µM (inactive) | 3.05 µM (inactive) | 13.3 µM (inactive) | 13.2 µM (inactive) | 14.1 µM (inactive) | – | 3.82 µM (inactive) | 16.7 µM (inactive) | 16.2 µM (inactive) | 13.2 µM (inactive) | 13.8 µM (inactive) | 22.5 µM (inactive) |
| COc1cccc(NC(=O)C(=O)C(C(C)=O)c2nc3ccc(Cl)cc3nc2O)c1 (centres undefined) | > 100 µM (inactive) | > 100 µM (inactive) | > 100 µM (inactive) | > 100 µM (inactive) | > 100 µM (inactive) | > 100 µM (inactive) | – | > 100 µM (inactive) | > 100 µM (inactive) | > 100 µM (inactive) | > 100 µM (inactive) | > 100 µM (inactive) | > 100 µM (inactive) | > 100 µM (inactive) | > 100 µM (inactive) | > 100 µM (inactive) | > 100 µM (inactive) | 54.7 µM (inactive) |
| O=C(CC(CC(=O)Oc1c(Br)cc(Br)cc1C(=O)O)C(=O)Oc1c(Br)cc(Br)cc1C(=O)O)Oc1c(Br)cc(Br)cc1C(=O)O | 47.5 µM (inactive) | 29 µM (inactive) | 50.7 µM (inactive) | 30.8 µM (inactive) | 91.6 µM (inactive) | 20.7 µM (inactive) | 22.2 µM (inactive) | 33.7 µM (inactive) | 48.1 µM (inactive) | 52.1 µM (inactive) | 48.8 µM (inactive) | 51.4 µM (inactive) | 49.9 µM (inactive) | 36.5 µM (inactive) | 16.5 µM (inactive) | 70.1 µM (inactive) | – | 26.1 µM (inactive) |
| N#CC(C#N)C(c1ccccc1)c1ccccc1 | > 100 µM (inactive) | > 100 µM (inactive) | > 100 µM (inactive) | > 100 µM (inactive) | > 100 µM (inactive) | > 100 µM (inactive) | > 100 µM (inactive) | > 100 µM (inactive) | > 100 µM (inactive) | > 100 µM (inactive) | > 100 µM (inactive) | > 100 µM (inactive) | > 100 µM (inactive) | > 100 µM (inactive) | > 100 µM (inactive) | > 100 µM (inactive) | > 100 µM (inactive) | – |
| O=C(/N=c1/[nH]/c(=N/C(=O)c2ccccc2)ss1)c1ccccc1 | 11.4 µM (inactive) | 6.64 µM (inactive) | 27.7 µM (inactive) | 23.9 µM (inactive) | 27.9 µM (inactive) | 38.8 µM (inactive) | 5.78 µM (inactive) | 6.35 µM (inactive) | 12.9 µM (inactive) | 16.5 µM (inactive) | 33.5 µM (inactive) | 26.1 µM (inactive) | > 10 µM (inactive) | 18.5 µM (inactive) | – | 9.89 µM (inactive) | 29.7 µM (inactive) | 38.6 µM (inactive) |
| CN(C)CC/C(=N\Nc1ccc(Cl)cc1)c1ccccc1 | 1.47 µM (inactive) | 1.28 µM (inactive) | 0.589 µM (active) | 0.256 µM (active) | 1.67 µM (inactive) | – | 1.32 µM (inactive) | 0.64 µM (active) | 1.92 µM (inactive) | 1.58 µM (inactive) | 2.43 µM (inactive) | 0.593 µM (active) | 0.556 µM (active) | 0.25 µM (active) | – | 1.98 µM (inactive) | 2.57 µM (inactive) | 2.15 µM (inactive) |
| CC(C)[C@@H](COC(C)(C)C)/N=C/N1CCc2c([nH]c3ccccc23)C1 | > 100 µM (inactive) | > 100 µM (inactive) | > 100 µM (inactive) | > 100 µM (inactive) | > 100 µM (inactive) | > 100 µM (inactive) | > 100 µM (inactive) | > 100 µM (inactive) | > 100 µM (inactive) | > 100 µM (inactive) | > 100 µM (inactive) | > 100 µM (inactive) | > 100 µM (inactive) | 84.9 µM (inactive) | 21.5 µM (inactive) | – | > 100 µM (inactive) | > 100 µM (inactive) |
| CS/C(=N/C#N)NCCc1c[nH]c2ccccc12 | > 100 µM (inactive) | > 100 µM (inactive) | > 100 µM (inactive) | > 100 µM (inactive) | > 100 µM (inactive) | > 100 µM (inactive) | – | 96.8 µM (inactive) | > 100 µM (inactive) | > 100 µM (inactive) | > 100 µM (inactive) | > 100 µM (inactive) | > 100 µM (inactive) | 49 µM (inactive) | – | – | > 100 µM (inactive) | 35.2 µM (inactive) |
| O=C(N/C(=C\c1ccccc1O)c1nc2ccccc2[nH]1)c1ccccc1 | > 100 µM (inactive) | > 100 µM (inactive) | > 100 µM (inactive) | 42.1 µM (inactive) | > 100 µM (inactive) | – | 45.2 µM (inactive) | > 100 µM (inactive) | 75.7 µM (inactive) | 89.7 µM (inactive) | 39.7 µM (inactive) | 41.5 µM (inactive) | > 100 µM (inactive) | > 100 µM (inactive) | 23.8 µM (inactive) | > 100 µM (inactive) | > 100 µM (inactive) | 12.8 µM (inactive) |
| CC(=O)C1C(c2ccc(N(C)C)cc2)c2cc3c(cc2OC1(C)O)OCO3 (centres undefined) | 37.6 µM (inactive) | 77.8 µM (inactive) | – | 42.1 µM (inactive) | 43.8 µM (inactive) | – | – | 26.7 µM (inactive) | – | 40.1 µM (inactive) | 75.7 µM (inactive) | 51.2 µM (inactive) | 32.9 µM (inactive) | 29.4 µM (inactive) | 8.32 µM (inactive) | 53 µM (inactive) | 33.3 µM (inactive) | 24.7 µM (inactive) |
| Cc1cc(NCCCCCCNc2cc(C)nc3ccc(Cl)cc23)c2cc(Cl)ccc2n1 | 20.8 µM (inactive) | – | 17.2 µM (inactive) | 14.9 µM (inactive) | > 100 µM (inactive) | > 100 µM (inactive) | 17 µM (inactive) | 47.4 µM (inactive) | 15.9 µM (inactive) | 22 µM (inactive) | 25.9 µM (inactive) | 27 µM (inactive) | 19.5 µM (inactive) | 23.5 µM (inactive) | – | 28.1 µM (inactive) | 16.1 µM (inactive) | 17.4 µM (inactive) |
| CC(C)(c1ccc(C=O)o1)c1ccc(C(C)(C)c2ccc(C=O)o2)o1 | > 100 µM (inactive) | > 100 µM (inactive) | > 100 µM (inactive) | > 100 µM (inactive) | – | > 100 µM (inactive) | > 100 µM (inactive) | – | > 100 µM (inactive) | – | > 100 µM (inactive) | > 100 µM (inactive) | – | – | 69.5 µM (inactive) | > 100 µM (inactive) | > 100 µM (inactive) | – |
| CN(C)c1ccc(-c2nc(N)nc3c2CCCC3)cc1 | 52.8 µM (inactive) | 64.4 µM (inactive) | 54 µM (inactive) | 31.3 µM (inactive) | 68.1 µM (inactive) | 51.3 µM (inactive) | 25.2 µM (inactive) | 30 µM (inactive) | > 100 µM (inactive) | 37.9 µM (inactive) | > 100 µM (inactive) | 49.1 µM (inactive) | 44.7 µM (inactive) | 41.5 µM (inactive) | – | 46.1 µM (inactive) | 34 µM (inactive) | 42 µM (inactive) |
| O=C(NC(=O)c1cn(CCN(CCO)C(=O)NCCCCCCNC(=O)N(CCO)CCn2cc(C(=O)NC(=O)OCc3ccccc3)c(=O)[nH]c2=O)c(=O)[nH]c1=O)OCc1ccccc1 | > 100 µM (inactive) | > 100 µM (inactive) | – | > 100 µM (inactive) | > 100 µM (inactive) | – | – | > 100 µM (inactive) | > 100 µM (inactive) | > 100 µM (inactive) | > 100 µM (inactive) | > 100 µM (inactive) | > 100 µM (inactive) | > 100 µM (inactive) | > 100 µM (inactive) | > 100 µM (inactive) | > 100 µM (inactive) | > 100 µM (inactive) |
| O=S(O)CCCSSc1ccccc1 | 25.5 µM (inactive) | 14.7 µM (inactive) | 31.1 µM (inactive) | 29.3 µM (inactive) | 37.1 µM (inactive) | – | 18.3 µM (inactive) | – | 25.3 µM (inactive) | 25.6 µM (inactive) | 96.8 µM (inactive) | 40.1 µM (inactive) | 36.6 µM (inactive) | 19.8 µM (inactive) | – | 67 µM (inactive) | 22.9 µM (inactive) | 20.8 µM (inactive) |
| CC1(C)CCC[C@@]2(C)C1CCC1(C)C(CCc3ccoc3)/C(=C/OS(=O)(=O)O)CCC12 (some centres undefined) | > 100 µM (inactive) | > 100 µM (inactive) | > 100 µM (inactive) | > 100 µM (inactive) | 42.7 µM (inactive) | 54.8 µM (inactive) | – | 33.7 µM (inactive) | > 100 µM (inactive) | > 100 µM (inactive) | > 100 µM (inactive) | > 100 µM (inactive) | > 100 µM (inactive) | 72.3 µM (inactive) | 23.9 µM (inactive) | > 100 µM (inactive) | 61.9 µM (inactive) | > 100 µM (inactive) |
